# Experimental data: patent US12091708B2, “Compositions and methods targeting the Th2 pathway for the treatment of asthma” (THE CHILDREN'S HOSPITAL OF PHILADELPHIA, priority 2017, dated 2024)
# Target: T1, CRTH2 receptor (Homo sapiens, UniProt Q9Y5Y4)
# T1 construct: CD3+ cells were isolated from the rested PBMCs using Human T-Expander CD3/CD28 Dynabeads; endogenous in cells; host or cells: primary human CD3+/CD28+ T cells purified from PBMCs of healthy volunteers, expanded 10 days under TH2-skewing conditions
# T1 sequence (Q9Y5Y4 1-395): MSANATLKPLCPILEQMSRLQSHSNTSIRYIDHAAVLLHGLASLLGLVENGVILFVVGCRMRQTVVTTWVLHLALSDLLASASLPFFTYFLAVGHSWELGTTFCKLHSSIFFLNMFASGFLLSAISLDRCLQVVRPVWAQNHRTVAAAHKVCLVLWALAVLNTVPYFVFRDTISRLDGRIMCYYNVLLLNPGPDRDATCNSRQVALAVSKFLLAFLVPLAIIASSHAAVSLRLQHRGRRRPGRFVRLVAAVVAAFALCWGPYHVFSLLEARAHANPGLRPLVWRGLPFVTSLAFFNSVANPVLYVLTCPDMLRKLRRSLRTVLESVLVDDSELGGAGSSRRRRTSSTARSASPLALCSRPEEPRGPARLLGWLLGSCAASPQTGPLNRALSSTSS
# Assay: CRTH2 assay: IL-13 expression (qPCR) in expanded, TH2-skewed T cells stimulated with PGD2 with or without CD3/CD28
# Type: cell-based
# Conditions: T cells from healthy human volunteers, increasing concentrations of PGD2, with CD3/CD28 stimulation (FIG. 4)
# Protocol: As discussed above, CRTH2 is a key regulator of TH2 cytokine expression and action. We developed a CRTH2 assay to determine the effects of the SNP, rs2786098, on CRTH2 expression and action. The CRTH2 assay was developed using the following protocol. PBMCs were thawed and placed into 10 ml of RPMI+20% FBS in 15 ml conical tubes. Tubes were closed tightly, and placed on a rocker in the incubator overnight. Viable cell counts were obtained the following day. CD3+ cells were isolated from the rested PBMCs using Human T-Expander CD3/CD28 Dynabeads. These magnetic beads were used to purify CD3+/CD28+ T cells from the PBMC mixture, and then left in the cell culture to provide stimulation and co-stimulation to induce expansion of the T cells. Purified T cells were cultured with the beads in the presence of IL-2, IL-4, anti-IFNγ, and anti-IL-12. IL-2 provides a proliferative stimulus, while IL-4, anti-IFNγ, and anti-IL-12 provide TH2 skewing conditions. Cells were cultured, and culture volume was increased as required, for 10 days, at which point, they were stimulated at 500,000 cells per well with the indicated stimuli for 8 hours. Cell pellets were harvested and RNA was extracted. Gene expression was determined by qPCR. […]
smiles,measurement,value
"CCCCC[C@H](O)/C=C/[C@H]1C(=O)C[C@H](O)[C@@H]1C/C=C\CCCC(=O)O [PGD2, Prostaglandin D2]",IL-13 production on stimulation,additional IL-13 was produced
